Measured values taken from patent publication EP0283369B1, “Use of Metformin in the preparation of medicaments” (LIPHA, LYONNAISE INDUSTRIELLE PHARMACEUTIQUE, priority 1987, dated 1988).

Experiments:
[1] = tested on: formation de néovaisseaux; assay: Neovascularisation after irreversible venous occlusion by argon laser photocoagulation in the miniature pig; type: in vivo, porc miniature; settings: voie orale, dose journalière de 100 mg, pendant 4 semaines; 6 porcs miniatures
Text: Pournaras, […] Mbl. Augenheilk. 186 (1985) 471-476). Les expériences ont été partiquées chez le porc miniature. Une occlusion veineuse irréversible a été obtenue par photocoagulation au moyen du laser à Argon. L'angiographie fluorescéinique permet de visualiser 4 semaines après l'occlusion, dans les zones où les vaisseaux de suppléance sont insuffisants en nombre pour assurer la fonction de drainage, […]éovascularisation.

[2] = tested on: endothélium en culture sur sa matrice extracellulaire; assay: Penetration of cancer cells through cultured endothelium on its extracellular matrix; type: cell-based; settings: 10⁻⁴ - 10⁻⁵ M; in vitro
[3] = tested on: néovascularisation de la cornée du lapin; assay: Rabbit cornea neovascularisation model; type: in vivo; settings: administration in situ
Text: (§1) • la néovascularisation est le résultat d'une prolifération anormale de cellules endothéliales en particulier dans un environnement hypoxique. • * Cette situation peut être reproduite in vitro en étudiant une telle prolifération sur une culture de cellules endothéliales humaines placées en hypoxie. […] Tout d'abord dans le modèle classique de néovascularisation de la cornée du lapin (M.A. Gimbrone Jr, R.S. Cotran, S.B. Leafman et A.J. Folkman, J. Natl Cancer Inst. 52).

métastases pulmonaires = assay: Pulmonary metastasis model in the mouse; type: in vivo; settings: 25 et 12,5 mg par voie orale; souris
[4] = tested on: cellules endothéliales humaines; assay: Proliferation of human endothelial cells cultured in hypoxia
Text: as §1

[5] = tested on: cellules musculaires lisses précapillaires; assay: Hamster cheek pouch microcirculation under pentobarbital anaesthesia; type: in vivo; settings: 1-2 mg/100 g par voie intraveineuse; animal anesthésié au pentobarbital (contractions abolished)
artérioles terminales = assay: Skin window in the awake hamster: spontaneous microvascular vasomotion; type: in vivo; settings: 2 mg/100 g par voie intraveineuse; hamster éveillé; controls: une par minute
Text: La fenêtre est éclairée par transmission, on observe le lit capillaire au microscope trioculaire. L'image est transformée en vidéosignal par une caméra. L'enregistrement du diamètre des microvaisseaux est réalisé en continu.
Le produit à étudier est administré par voie intra-veineuse.

[6] = tested on: modèle d'ischémie périphérique chez le rat; assay: Peripheral ischaemia model: microspheres injected into the femoral artery; type: in vivo; settings: voie intra péritonéale 20 mg/kg
Text: Dans un modèle d'ischémie périphérique chez le rat, l'injection de microsphères dans l'artère fémorale, provoque l'apparition d'un oedème de la patte ainsi qu'une baisse des capacités motrices de l'animal.

CN(C)C(=N)NC(=N)N [Metformine, N,N-diméthylimidodicarbonimidicdiamide]
apparition d'une néovascularisation [1]: suppression complète de l'apparition d'une néovascularisation | pénétration de cellules cancéreuses à travers l'endothélium [2]: inhibe la pénétration de cellules cancéreuses à travers l'endothélium | apparition des néovaisseaux [3]: inhibe l'apparition des néovaisseaux | baisse du nombre de métastases (métastases pulmonaires): 50% | prolifération de cellules endothéliales humaines en hypoxie ([4]; concentrations de l'ordre de 10⁻⁷ à 10⁻¹² M, hypoxie): inhibe fortement cette prolifération | cytotoxicité sur ces cultures cellulaires ([4]; cultures de cellules endothéliales humaines): ne présente pas de cytotoxicité | contractions et relaxations rythmiques des cellules musculaires lisses précapillaires [5]: réapparition des contractions et relaxations rythmiques des cellules musculaires lisses précapillaires | fréquence de contractions et dilatations des artérioles terminales (artérioles terminales): 10 par minute | motricité (capacités motrices de l'animal) [6]: récupération totale de la motricité | réduction de l'oedème de la patte [6]: 60%
